“And” between values parts separate entries of the source, which are not always exact repeats. Equal values may be shown once.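 Compound exposure: 48 hours, 5 concentrations, 96-well plates. Abbreviation: GI50, concentration required for 50% inhibition of growth. The concentration for full growth arrest is given as TGI.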

Among the test systems are K-562 leukemia; HL-60(TB) leukemia; LOX IMVI melanoma; MOLT-4 leukemia; MALME-3M melanoma; OVCAR-5 ovarian; U251 CNS; UACC-62 melanoma; NCI-H522 lung; NCI/ADR-RES ovarian.
Common to all, as to assay: NCI tumour cell line growth inhibition, 48 h

With `COc1ccc2[nH]c(C(=O)OCc3ccc4cccc(O)c4n3)cc2c1`, the GI50 in the assay on K-562 leukemia is 0.283 µM; with HL-60(TB) leukemia, 1.18 µM; in the assay with LOX IMVI melanoma it was 0.779 µM; in the assay with MOLT-4 leukemia it was 0.641 µM; in the assay with MALME-3M melanoma, 1.52 µM; in the assay with OVCAR-5 ovarian, 1.45 µM. For the same compound, the GI50 in the assay on U251 CNS was 1.67 µM; in the assay with UACC-62 melanoma, 1.31 µM; with NCI-H522 lung, 1.39 µM; with NCI/ADR-RES ovarian, 1.94 µM. In addition, the TGI with K-562 leukemia was 2.66 µM; in the assay with HL-60(TB) leukemia, 3.4 µM; with LOX IMVI melanoma, 2.14 µM; in the assay with MOLT-4 leukemia, 2.99 µM; with MALME-3M melanoma, 2.89 µM; with OVCAR-5 ovarian it was 2.96 µM. The TGI turned out to be 3.15 µM in the assay with U251 CNS, 2.6 µM in the assay with UACC-62 melanoma, 3.25 µM in the assay on NCI-H522 lung and 5.91 µM with NCI/ADR-RES ovarian.

`CCN(CC)c1nc(NC2CCCCC2)c2nc(N(CC)CC)nc(NC3CCCCC3)c2n1`: the TGI in the assay with K-562 leukemia, in the assay on HL-60(TB) leukemia, with MOLT-4 leukemia, in the assay with MALME-3M melanoma, with OVCAR-5 ovarian and with U251 CNS was greater than 100 µM throughout. The TGI in the assay with UACC-62 melanoma and in the assay on NCI/ADR-RES ovarian was greater than 100 µM throughout.

Regarding `CC12OC(C(=O)C13CCC3)C1C(=O)c3ccc4c(ccc5ccccc54)c3C(=O)C12` (configuration not stated), the GI50 with K-562 leukemia was 3.27 µM; in the assay with HL-60(TB) leukemia it was 5.15 µM; with MOLT-4 leukemia, 3.67 µM; in the assay on MALME-3M melanoma it was 4.2 µM; in the assay with OVCAR-5 ovarian it was 17.8 µM; with U251 CNS it was 11.5 µM. The GI50 in the assay on UACC-62 melanoma was 35.4 µM; in the assay on NCI-H522 lung, 13 µM; with NCI/ADR-RES ovarian, 4.45 µM. The TGI in the assay with K-562 leukemia was found to be 16 µM; in the assay with HL-60(TB) leukemia it was 43.7 µM; in the assay with MOLT-4 leukemia, 53.6 µM; in the assay with MALME-3M melanoma it was 17.2 µM; in the assay with OVCAR-5 ovarian, 33.9 µM; with U251 CNS, 31.9 µM. In addition, the TGI with UACC-62 melanoma was greater than 100 µM; in the assay on NCI-H522 lung, 35.1 µM; in the assay with NCI/ADR-RES ovarian, 22.8 µM.

As for `Cc1cn2c(/C=N/N=C(N)N)c(-c3ccncc3)nc2s1`, the GI50 in the assay with K-562 leukemia was 15.4 µM; in the assay on HL-60(TB) leukemia, 19.7 µM; in the assay with LOX IMVI melanoma, 14.9 µM; with MOLT-4 leukemia, 7.74 µM; with OVCAR-5 ovarian it was 17.8 µM; with U251 CNS, 17.8 µM. Further, the results for the GI50 with UACC-62 melanoma, with NCI-H522 lung and in the assay with NCI/ADR-RES ovarian were 19 µM, 17.7 µM and greater than 100 µM, respectively. Also, the TGI with K-562 leukemia turned out to be 34 µM; in the assay with HL-60(TB) leukemia it was 40.1 µM; with LOX IMVI melanoma, 28.1 µM; in the assay with MOLT-4 leukemia, 32.2 µM; in the assay with OVCAR-5 ovarian it was 31.7 µM; with U251 CNS, 31.6 µM. Further, the TGI is 34.1 µM with UACC-62 melanoma, 59.7 µM in the assay on NCI-H522 lung and greater than 100 µM in the assay with NCI/ADR-RES ovarian.

Regarding `C/C(=N\NC(N)=S)c1sc(-n2nc(-c3ccccc3)cc2-c2ccccc2)nc1C`, the TGI in the assay with HL-60(TB) leukemia, with LOX IMVI melanoma, in the assay with MOLT-4 leukemia, with MALME-3M melanoma, in the assay on OVCAR-5 ovarian and with U251 CNS was greater than 100 µM in each case. Further, the TGI with UACC-62 melanoma, in the assay on NCI-H522 lung and in the assay on NCI/ADR-RES ovarian was greater than 100 µM throughout.

As for `COc1cc(NC(C)CCCNC(C)C)c2ncccc2c1OC` (configuration not stated), the GI50 with K-562 leukemia was 32.8 µM; with HL-60(TB) leukemia it was 14.2 µM; with LOX IMVI melanoma it was greater than 100 µM; in the assay with MOLT-4 leukemia, greater than 100 µM; in the assay on MALME-3M melanoma it was 42.3 µM; in the assay with OVCAR-5 ovarian it was greater than 100 µM. The GI50 in the assay on U251 CNS, in the assay on UACC-62 melanoma and in the assay with NCI/ADR-RES ovarian was greater than 100 µM in each case. Besides, the TGI with K-562 leukemia is greater than 100 µM; with HL-60(TB) leukemia, 72.4 µM; with LOX IMVI melanoma, greater than 100 µM; in the assay with MOLT-4 leukemia, greater than 100 µM; with MALME-3M melanoma, greater than 100 µM; with OVCAR-5 ovarian, greater than 100 µM. Further, the TGI in the assay with U251 CNS, with UACC-62 melanoma and in the assay with NCI/ADR-RES ovarian was greater than 100 µM throughout.

`Nc1ccccc1C(=O)NC(=O)Nc1ccc(Oc2ncc(Br)cn2)c(Cl)c1`: the GI50 was 0.00659 µM in the assay on K-562 leukemia, 0.00489 µM in the assay with HL-60(TB) leukemia, 0.0511 µM with MOLT-4 leukemia and 0.00797 µM with UACC-62 melanoma. Besides, the TGI in the assay with K-562 leukemia is 18 µM; in the assay with HL-60(TB) leukemia, 0.0451 µM and 0.232 µM; in the assay with LOX IMVI melanoma, 24.1 µM; in the assay with MOLT-4 leukemia it was 33.9 µM; in the assay with MALME-3M melanoma it was 11.6 µM; with OVCAR-5 ovarian, 51.7 µM. Further, the values for the TGI in the assay with U251 CNS, in the assay with UACC-62 melanoma and in the assay on NCI/ADR-RES ovarian were 12.4 µM, 4.33 µM and 0.391 µM, respectively.

In the case of `COc1ccc(-c2nc(N)c(C#N)c3c2CCOc2c-3ccc3ccccc23)cc1`, the GI50 with K-562 leukemia is greater than 100 µM; with HL-60(TB) leukemia, greater than 100 µM; in the assay on MOLT-4 leukemia, greater than 100 µM; in the assay with MALME-3M melanoma, 15.2 µM; in the assay with OVCAR-5 ovarian it was 62.2 µM; with U251 CNS, 14 µM. Moreover, the figures for the GI50 in the assay with NCI-H522 lung and in the assay on NCI/ADR-RES ovarian were 38.1 µM and 17.5 µM, respectively. For the same compound, the TGI is greater than 100 µM with K-562 leukemia; greater than 100 µM in the assay with HL-60(TB) leukemia; greater than 100 µM in the assay on MOLT-4 leukemia; 50.1 µM in the assay on MALME-3M melanoma; greater than 100 µM in the assay with OVCAR-5 ovarian; 34.4 µM with U251 CNS. The results for the TGI in the assay with NCI-H522 lung and with NCI/ADR-RES ovarian were greater than 100 µM and 57.8 µM, respectively.

`COc1ccc(-c2n[nH]nc2-c2cc(OC)c3c(c2)OCO3)cc1`: the GI50 in the assay on K-562 leukemia was less than 0.01 µM; in the assay with HL-60(TB) leukemia it was 0.0252 µM; with LOX IMVI melanoma, 0.0649 µM; in the assay on MOLT-4 leukemia, 0.0627 µM; in the assay on OVCAR-5 ovarian, 0.0665 µM; in the assay with U251 CNS it was 0.0359 µM. The GI50 with UACC-62 melanoma, with NCI-H522 lung and with NCI/ADR-RES ovarian was less than 0.01 µM each time. Besides, the TGI in the assay with K-562 leukemia is greater than 100 µM; in the assay with HL-60(TB) leukemia, 0.336 µM; in the assay on LOX IMVI melanoma, 16 µM; in the assay on MOLT-4 leukemia, 5.45 µM; in the assay on OVCAR-5 ovarian it was greater than 100 µM; with U251 CNS it was 15.6 µM. For the same compound, the TGI with UACC-62 melanoma was 49.2 µM; with NCI/ADR-RES ovarian, 0.982 µM.

The record behind these values is PubChem BioAssay (NCI).
